# According to patent US9079874B2, “α-Lipoic acid nanoparticles and methods for preparing thereof” (Ezaki Glico Co., Ltd., priority 2007, dated 2015):
# Assays:
# [1] = cited from earlier work
# [2] = Thermostability test of preparation, Test Example 1 (60° C., HPLC); assay type: physicochemical; conditions: for Residual ratio(%) of α-lipoic acid: 60° C.
# Experimental: The α-lipoic acid-MgCO3 nanoparticles produced in Example 1A, and the α-lipoic acid nanoparticles produced in Comparative Example 1A without adding magnesium chloride and sodium carbonate were respectively heated at 60° C., and the amounts of α-lipoic acid in the sample after one hour of heating and after 3 hours of heating were analyzed by HPLC. As a control, a reagent α-lipoic acid was used. The amount of α-lipoic acid after heating was divided by the amount of α-lipoic acid before heating, and the result was multiplied by 100 such that the residual ratio of α-lipoic acid was calculated. Symbol Δ represents the results of control reagent of α-lipoicacid, symbol ▪ represents the results of the α-lipoic acid dispersion liquid of Comparative Example 1, and symbol □ represents the results of the α-lipoic acid-MgCO3 nanoparticles of Example 1A.
# [3] = Improvement in sulfurous odor, Test Example 2 (left indoors under sunlight); assay type: physicochemical; conditions: 0.1% α-lipoic acid in water, after two weeks
# Excerpt: The paste after freeze-drying of the α-lipoic acid-MgCO3 nanoparticles produced in Example 1A, and the paste after freeze-drying of the α-lipoic acid nanoparticles produced in Comparative Example 1A without adding magnesium chloride and sodium carbonate, were respectively dispersed in distilled water such that the final concentration of α-lipoic acid reached 0.1%. The dispersions were placed in transparent test tubes made of resin, and the test tubes were left to stand indoors under sunlight. As a control, an aqueous dispersion liquid having α-lipoic acid dissolved in water (final concentration of α-lipoic acid 0.1%), which was prepared by adding an alkali (5M NaOH) to reagent α-lipoic acid, and thereby adjusting the pH to 7 to 7.5, was also left to stand in the same manner.
# [4] = system: 3T3-L1 cells; test: Dedifferentiation of mature adipocytes, lipid accumulation by Oil Red O, Test Example 8; assay type: cell-based; conditions: added to adipocyte maturation medium, 100, 250 or 500 μM α-lipoic acid, 4 days; nanoparticles of Example 20A
# Experimental: 1.5 ml of D-MEM medium (D-MEM medium supplemented with 10% FCS, 100 units/ml of penicillin, and 100 μg/ml of streptomycin, all at final concentrations) was added to a plastic petri dish having a diameter of 3.5 cm. To this, 5.0×10^4 cells of 3T3-L1 cells, which are preadipocytes, were suspended, and precultured for 3 days to result in a confluent state. Thereafter, the medium was replaced with 3 ml of an adipocyte differentiation induction medium (D-MEM medium supplemented with 10% FCS, 100 units/ml of penicillin, 100 μg/ml of streptomycin, 5 μg/ml of insulin, 0.25 μM of dexamethasone, and 0.5 mM of isobutyl-methylxanthine, all at final concentrations), and the culturing was carried out for 4 days to induce the differentiation into adipocytes. Thereafter, the medium was replaced with an adipocyte maturation medium (D-MEM medium supplemented with 10% FCS, 100 units/ml of penicillin, 100 μg/ml of streptomycin, and 5 μg/ml of insulin, all at final concentrations), and the culturing was carried out for 7 days. Thereafter, the medium was replaced with a test medium, and culturing was carried out for another 4 days. […]
# The amount of accumulated lipids in the cultured cells thus obtained was measured. […] The total amount of this solution was recovered, and the absorbance at a wavelength of 520 nm was measured with a spectrophotometer.
# [5] = system: 3T3-L1 cells; test: Differentiation of preadipocytes, lipid accumulation by Oil Red O, Test Example 7; assay type: cell-based; conditions: added to adipocyte differentiation induction medium, 100, 250 or 500 μM α-lipoic acid, 4 days; nanoparticles of Example 20A
# Experimental: 1.5 ml of D-MEM medium (D-MEM medium supplemented with 10% FCS, 100 units/ml of penicillin, and 100 μg/ml of streptomycin, all at final concentrations) was added to a plastic petri dish having a diameter of 3.5 cm. To this, 5.0×10^4 cells of 3T3-L1 cells, which are preadipocytes, were suspended, and precultured for 3 days to result in a confluent state. Thereafter, the medium was replaced with 3 ml of an adipocyte differentiation induction medium (D-MEM supplemented with 10% FCS, 100 units/ml of penicillin, 100 μg/ml of streptomycin, 5 μg/ml of insulin, 0.25 μM of dexamethasone, and 0.5 mM of isobutyl-methylxanthine (IBMX), all at final concentrations). After another 2 days, the medium was replaced with 3 ml of the adipocyte differentiation induction medium of the same composition, and then the culturing was carried out for 2 days. Thus, the culturing in the adipocyte differentiation induction medium was carried out for 4 days in total. During this culturing, an α-lipoic acid solution or the α-lipoic acid-MgCO3 nanoparticle solution of Example 20A was added to the adipocyte differentiation induction medium to result in 0, 100, 250 or 500 μM of α-lipoic acid concentration. […]
# The amount of accumulated lipids in the cultured cells thus obtained was measured. […] The whole amount of this solution was recovered, and the absorbance at a wavelength of 520 nm was measured with a spectrophotometer.
smiles,measurement,setting,value
CC1=C(/C=C/C(C)=C/C=C/C(C)=C/C(=O)O)C(C)(C)CCC1 [retinoic acid],pKa value,[1],6.4
O=C(O)CCCCC1CCSS1 (stereo not drawn) [α-lipoic acid],pKa value,[1],4.76
same,Residual ratio(%) of α-lipoic acid,[2]; heating time 0 hrs,100%
same,Residual ratio(%) of α-lipoic acid,[2]; heating time 1 hr,50.51%
same,Residual ratio(%) of α-lipoic acid,[2]; heating time 3 hrs,44.20%
same,reduction of the amount of α-lipoic acid,[2]; after 3 hours of heating at 60° C.,about 55%
same,sulfurous odor,[3],characteristic sulfurous odor strongly emanated
same,"amount of lipid accumulation in mature adipocytes (Oil Red O, 520 nm)",[4],almost indifferent from that of the non-added group
same,"accumulation of lipids in cells (Oil Red O, 520 nm)",[5],reduction of the accumulation of lipids
